Test results: US20130129675A1, “INTERFERON THERAPIES IN COMBINATION WITH BLOCKADE OF STAT3 ACTIVATION” (BOARD OF REGENTS, THE UNIVERSITY OF TEXAS SYSTEM, priority 2009, published 2013)

Experiments:
B16 target cells = experiment: Ex vivo splenocyte cytotoxicity assay; format: cell-based, mice; conditions: 48 h
Text: Spleens from 4- to 6-week-old female mice in the above treatment schema were harvested and disassociated into a single cell suspension. After erythrocytes were lysed with 1×RBC lysis buffer (eBioscience), splenocytes were washed once with RPMI 1640 medium and were ready as effector cells for the standard cytotoxicity assay. Wang L, Yi T, Kortylewski M, Pardoll D M, Zeng D, Yu H, IL-17 Can Promote Tumor Growth Through An IL-6-Stat3 Signaling Pathway, J Exp Med 2009; 206:1457-64. For target cells, B16 cells in RPMI 1640 medium were cultured for 3 days, trypsinized, pelleted, and resuspended in FACS buffer at room temperature to achieve a concentration of 10^6 cells/ml. Carboxy-fluorescein diacetate succinimidyl ester (CFSE) stock solution (CellTrace CFSE Cell Proliferation Kit; Invitrogen, Eugene, Oreg.) was added to achieve a final concentration of 4 μM. The mixture was incubated at 37° C. for 10 minutes, and then the staining reaction was quenched by the addition of five volumes of ice-cold PBS for 5 minutes. The B16 cells were washed three times in RPMI 1640 medium and plated for the cytotoxicity assay. The ratios of splenocyte effector cells to B16 target cells were 30:1 and 100:1. After 48 h of incubation, the CFSE-labeled B16 melanoma cells were removed from the plates with trypsin-EDTA (0.05%) and analyzed by FACS. The B16 cells were stained with propidium iodide (PI; BD Biosciences) to distinguish viable cells from nonviable cells. B16 cells that were stained with CFSE and PI were considered nonviable. Flow cytometric acquisition of the B16 target cells was performed with a FACSCalibur flow cytometer (BD Biosciences), and data analysis was performed using FlowJo software (TreeStar, Ashland, Oreg.).
To ascertain the underlying in vivo immunological mechanism that is responsible for the therapeutic efficacy, we examined splenocytes cytotoxic responses directed against B16 melanoma cells. Splenocytes from control mice and mice treated with WP1193, IFN-α, or IFN-α+WP1193 were isolated and co-cultured with CFSE-labeled B16 target cells for 48 hours to assess splenocyte cytotoxicity against B16 cells. […] Furthermore, in mice treated with both IFN-α and WP1193, there was additive enhanced cytotoxic clearance of the B16 target cells compared with mice that were treated with either WP1193 or IFN-α alone (P<0.01;).

B16 cells = experiment: MHC I, MHC II and NK cell ligands on B16 melanoma cells (flow cytometry); format: cell-based, murine; conditions: WP1193 2 μM, IFN-α 20 ng/ml; for MHC I expression on B16: 24 hours (FIG. 6A); for surface H60, Rae-1 and CD155 (NK ligands) on B16: 24 hours (FIG. 6B)
Protocol: To ascertain the MHC I, MHC II, and NK ligands expressed on melanoma cells, B16 cells were seeded at a density of 2×10^6 cells/well in 24-well culture plates and cultured with the RPMI 1640 medium in the absence or presence of WP1193 (2 μM) and/or INF-α (20 ng/ml) for 24 hours. Afterwards, the cells were harvested and washed twice, and 10^6 cells in duplicate were Fc blocked with purified rat anti-mouse CD16/CD32 (BD Biosciences) for 15 minutes at room temperature. The B16 cells were washed and then stained for approximately 30 minutes at 4° C. with FITC-conjugated rat anti-mouse MHC I mAb (Abeam, Cambridge, Mass.), PE-conjugated rat anti-mouse MHC Class II mAb (Abeam), FITC-conjugated rat anti-mouse Rae-1 mAb (R&D Systems), APC-conjugated rat anti-mouse H60 mAb (R&D Systems) or PE-conjugated rat anti-mouse CD155 mAb (Biolegend). Negative control cells were stained with the corresponding isotypes. Following incubation, the cells were washed twice with FACS buffer and then analyzed with a BD FACSCalibur with gates set for viable cells.
Because we observed NK and CD8+ T cell-mediated anti-tumor cytotoxicity were enhanced with combinational therapy, to ascertain if either IFN-α, WP1193 or both were augmenting the expression of MHC or NK activating receptors or their ligands, splenocytes and B16 cells were treated with RPMI 1640 medium (control), WP1193 (2 μM), IFN-α (20 ng/ml), or IFN-α (20 ng/ml)+WP1193 (2 μM) for 24 hours. The NK-activating ligands (Rae-1, H60 and CD155) and MHC (I and II) on B16 cells and the NK-activating receptors (NKG2D, KLRD1, NKp46 and DNAM-1) on NK1.1+ NK cells were analyzed by flow cytometric analysis.

[1] = test system: B16 target cells (CD3+CD8+ T effector cells); experiment: CD8+ T cell cytotoxicity assay against melanoma cells; format: cell-based, mice; conditions: WP1193 2 μM, IFN-α 20 ng/ml, 48 h, control 10.8
Protocol: Splenocytes were prepared as described above. NK1.1+CD3− NK effector cells or CD3+CD8+ T effector cells were sorted from splenocytes on a FACSAria Cell Sorter (BD Biosciences) with FITC-conjugated anti-mouse NK1.1 (eBioscience), PE-conjugated anti-CD3, and allophycocyanin (APC)-conjugated anti-CD8 antibodies (Miltenyi Biotec, Auburn, Calif.). B16 target cells were prepared as described above. The ratio of NK1.1+CD3− NK effector cells or CD8+ T effector cells to B16 target cells was 10:1 and 5:1, respectively. In the presence of NK1.1+CD3− NK cells or CD8+ T cells, treatment groups consisted of B16 target cells alone; B16 cells with 2 μM of WP1193; B16 cells with 20 ng/ml of IFN-α; B16 cells with 2 µM of WP1193 and 20 ng/ml of IFN-α. After 48 hours of incubation, the CFSE-labeled B16 melanoma cells were removed from the plates with trypsin and analyzed by FACS. Then, B16 cells were stained with PI (BD Biosciences) to distinguish viable cells from nonviable cells. B16 cells that were stained with CFSE and PI were considered nonviable. Flow cytometric acquisition of the B16 target cells was performed with a FACSCalibur flow cytometer (BD Biosciences), and data analysis was performed using FlowJo software (TreeStar). […]

[2] = 30:1 ratio of splenocytes to B16 Tumor Cells, control 25.2
[3] = 100:1 ratio of splenocytes to B16 Tumor Cells, control 38.1

| Compound | % of B16 Killimg (B16 target cells; [2]) | % of B16 Killimg (B16 target cells; [3]) | MHC I expression on B16 (B16 cells) | surface H60, Rae-1 and CD155 (NK ligands) on B16 (B16 cells) | % of B16 Killimg [1] |
| --- | --- | --- | --- | --- | --- |
| N#C/C(=C\c1cccc(Br)n1)C(=O)N[C@H](c1ccccc1)C1CC1 [WP1193, (S,E)-3-(6-bromopyridin-2-yl)-2-cyano-N-(cyclopropyl(phenyl)methyl)acrylamide] | 29.8% | 42.0% | not further enhanced | do not alter the receptor density of the NK ligands | 11.2% |
| IFN-α | 40.1% | 51.6% | enhanced | do not alter the receptor density of the NK ligands | 14.3% |
